From ChEMBL document CHEMBL1201862, “PubChem BioAssay data set” (2004)
Active and inactive are the calls of the source.

Columns and labels:
[1] = HEp-2 cell cytotoxicity, dose response, cytotoxicity control for RSV inhibitor project, HTS (AID 2410); assay type: functional; details: human respiratory syncytial virus
[2] = test system: Streptococcus sp. 'group A'; assay: growth inhibition of control SK(-) GAS strain, dose response, counter-screen for streptokinase expression inhibitor project, luminescence, kanamycin, BacTiterGlo, confirmation (AID 1900); assay type: functional, organism-based
[3] = target: T1, Streptokinase A (Streptococcus pyogenes serotype M1, UniProt P10520); assay: S. pyogenes streptokinase expression inhibitors, potency, dose response, plasminogen activation absorbance, OD405 (AID 1914); assay type: functional, Streptococcus pyogenes M1 GAS;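 further: secreted streptokinase activity via plasminogen activation per viability signal from cell pellet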
T1 sequence (P10520 whole entry): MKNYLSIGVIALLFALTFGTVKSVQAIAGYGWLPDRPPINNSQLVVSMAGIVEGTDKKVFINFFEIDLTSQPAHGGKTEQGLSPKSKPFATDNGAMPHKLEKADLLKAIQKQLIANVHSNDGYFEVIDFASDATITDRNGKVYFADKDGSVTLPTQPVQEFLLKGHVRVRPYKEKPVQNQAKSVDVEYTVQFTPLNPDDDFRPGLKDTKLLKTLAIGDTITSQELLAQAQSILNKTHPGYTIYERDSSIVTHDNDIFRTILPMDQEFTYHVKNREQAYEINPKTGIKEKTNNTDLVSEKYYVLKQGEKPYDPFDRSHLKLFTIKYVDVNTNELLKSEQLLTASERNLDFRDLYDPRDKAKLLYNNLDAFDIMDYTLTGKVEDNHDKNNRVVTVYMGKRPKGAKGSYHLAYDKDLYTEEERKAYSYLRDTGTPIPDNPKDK

[4] = test system: Streptococcus; assay: Group A Streptococcus viability loss, dose response, counter-screen for streptokinase expression inhibitor project, luminescence, BacTiterGlo (AID 1915); assay type: functional, organism-based;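 further: potency for reduction of bacterial viability or growth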
[5] = test system: INS1; assay: beta cell apoptosis inhibitors, cytokine rescue, dose response, luminescence, retest (AID 449756); assay type: functional, cell-based; details: Rattus norvegicus;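 further: cell death triggered by IL-1 beta plus TNF-alpha plus IFN-gamma mixture; protective hits raise ATP signal compared with cytokine alone wells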
[6] = target: T2, Heat shock factor protein 1 (Mus musculus, UniProt P38532); assay: inhibition of MG132-induced HSE-luciferase signal, confirmation, cell-based, NIH3T3, luminescence, dose retest (AID 2382); assay type: functional;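 further: NIH3T3 fibroblasts with HSF1-driven luciferase reporter stressed by proteasome inhibitor MG132; luminescence from HSF1-driven luciferase expression after 8 hours of MG132 stress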
T2 sequence (P38532 whole entry): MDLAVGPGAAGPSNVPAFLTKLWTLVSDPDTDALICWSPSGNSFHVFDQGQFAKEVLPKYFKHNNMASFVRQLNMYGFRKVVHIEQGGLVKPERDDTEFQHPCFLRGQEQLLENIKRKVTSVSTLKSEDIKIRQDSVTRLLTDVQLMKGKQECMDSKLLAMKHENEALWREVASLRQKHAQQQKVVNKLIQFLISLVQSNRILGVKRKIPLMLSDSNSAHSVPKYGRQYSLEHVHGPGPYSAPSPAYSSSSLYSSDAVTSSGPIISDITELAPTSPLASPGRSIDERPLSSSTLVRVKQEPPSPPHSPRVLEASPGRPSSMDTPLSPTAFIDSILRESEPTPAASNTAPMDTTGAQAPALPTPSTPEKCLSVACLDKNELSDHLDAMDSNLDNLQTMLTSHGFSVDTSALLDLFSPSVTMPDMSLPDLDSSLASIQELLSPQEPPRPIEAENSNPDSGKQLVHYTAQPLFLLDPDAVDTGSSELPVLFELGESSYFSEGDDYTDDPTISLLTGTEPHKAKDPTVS

[7] = target: Cytochrome P450 2C19 (Homo sapiens, UniProt P33261); assay: Cytochrome panel assay with activity outcomes. Panel member name: p450-cyp2c19 Compounds with AC50 equal or less than 10 uM are considered active; assay type: functional; details: read-out: AC50
Sequence of Cytochrome P450 2C19 (P33261 whole entry): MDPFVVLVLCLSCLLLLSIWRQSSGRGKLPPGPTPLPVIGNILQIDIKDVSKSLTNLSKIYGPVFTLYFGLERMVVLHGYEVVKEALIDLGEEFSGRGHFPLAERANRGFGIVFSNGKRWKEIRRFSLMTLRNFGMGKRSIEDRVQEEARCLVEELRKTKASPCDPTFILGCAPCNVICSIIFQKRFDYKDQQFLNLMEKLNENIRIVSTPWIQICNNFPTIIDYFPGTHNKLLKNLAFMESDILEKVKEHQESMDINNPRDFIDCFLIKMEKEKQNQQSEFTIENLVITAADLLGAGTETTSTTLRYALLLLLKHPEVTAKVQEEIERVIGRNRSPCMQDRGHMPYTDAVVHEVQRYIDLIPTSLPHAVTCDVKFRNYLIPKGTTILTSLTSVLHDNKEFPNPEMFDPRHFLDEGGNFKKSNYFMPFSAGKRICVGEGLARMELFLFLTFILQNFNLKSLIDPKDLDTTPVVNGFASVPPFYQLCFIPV

[8] = target: T3, Cytochrome P450 1A2 (Homo sapiens, UniProt P05177);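 further: PubChem cytochrome P450 panel assay, CYP1A2 panel member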
T3 sequence (P05177 whole entry): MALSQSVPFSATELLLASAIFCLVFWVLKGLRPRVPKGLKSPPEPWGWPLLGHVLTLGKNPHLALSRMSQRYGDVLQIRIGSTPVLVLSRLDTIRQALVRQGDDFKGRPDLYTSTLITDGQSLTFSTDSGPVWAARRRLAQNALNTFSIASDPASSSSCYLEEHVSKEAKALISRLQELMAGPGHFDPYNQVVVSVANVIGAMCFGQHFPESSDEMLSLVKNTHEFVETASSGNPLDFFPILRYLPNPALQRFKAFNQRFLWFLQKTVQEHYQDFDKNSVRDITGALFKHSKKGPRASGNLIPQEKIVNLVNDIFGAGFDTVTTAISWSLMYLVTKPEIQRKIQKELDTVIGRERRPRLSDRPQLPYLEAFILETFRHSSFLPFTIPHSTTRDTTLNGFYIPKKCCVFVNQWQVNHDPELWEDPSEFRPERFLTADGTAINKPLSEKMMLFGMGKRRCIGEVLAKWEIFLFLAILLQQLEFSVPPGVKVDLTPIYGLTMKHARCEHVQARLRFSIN

[9] = target: Cytochrome P450 2C9 (Homo sapiens, UniProt P11712)
Sequence of Cytochrome P450 2C9 (P11712 whole entry): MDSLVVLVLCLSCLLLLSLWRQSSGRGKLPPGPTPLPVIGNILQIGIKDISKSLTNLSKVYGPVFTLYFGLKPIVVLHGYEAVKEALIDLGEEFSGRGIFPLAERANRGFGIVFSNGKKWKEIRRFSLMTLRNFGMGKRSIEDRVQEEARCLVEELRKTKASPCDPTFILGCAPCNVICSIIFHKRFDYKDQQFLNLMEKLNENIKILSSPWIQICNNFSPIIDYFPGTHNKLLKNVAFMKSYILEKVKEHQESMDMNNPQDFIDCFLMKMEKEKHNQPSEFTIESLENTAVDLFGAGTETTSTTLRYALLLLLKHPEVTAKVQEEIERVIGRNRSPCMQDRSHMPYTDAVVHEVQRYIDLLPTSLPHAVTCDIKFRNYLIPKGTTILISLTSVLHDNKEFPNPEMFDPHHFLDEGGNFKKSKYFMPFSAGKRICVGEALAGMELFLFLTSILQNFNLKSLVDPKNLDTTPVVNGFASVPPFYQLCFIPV

Structure (SMILES)	EC50 [2]	EC50 [4]	EC50 [6]	also measured
O=S(=O)(c1ccc2c(c1)OCCO2)N1CCC(c2nc(O)c3nnn(Cc4ccc(F)cc4)c3n2)CC1				CC50 [1]: 37.6 µM (active)
CCn1cnc2sc(C(=O)Oc3cccc(C)c3)c(C)c2c1=O	11.8 µM (active)	28.8 µM (active)		EC50 [3]: > 150 µM (not active)
C[C@H](CCC(=O)NCC(=O)O)[C@H]1CC[C@H]2[C@@H]3[C@H](O)C[C@@H]4C[C@H](O)CC[C@]4(C)[C@H]3C[C@H](O)[C@]12C [GLYCOCHOLIC ACID]	> 150 µM (not active)	> 150 µM (not active)		EC50 [3]: > 150 µM (not active)
O=C(N/N=C/c1ccccc1)c1c(O)nc2ccccc2c1O				AC50 [5]: 6.26 µM (active)
CC(=O)c1cccc(NC(=O)CN2C(=O)c3ccccc3C2=O)c1			> 195 µM (not active)	
Cc1ccc(N(CC(=O)NCCSCc2ccco2)S(C)(=O)=O)cc1			> 195 µM (not active)	
CC(C)(C)OC(=O)N1CCC(CNC(=O)c2cccs2)CC1				AC50 [5]: > 260 µM (inactive)
CC1(C)C[C@H](O)[C@]2(CO)CC[C@]3(C)C(=CCC4[C@@]5(C)CC[C@H](O)C(C)(C)C5CC[C@]43C)[C@@H]2C1 (some centres not stated)				CC50 [1]: 36.2 µM (active)
COc1cccc(NC(=S)N(CCc2c(C)[nH]c3ccc(C)cc23)Cc2cccs2)c1				CC50 [1]: 13.4 µM (active)
COC(=O)C1=CN(c2ccc(OC)cc2)C=C(C(=O)OC)C1c1ccc(C)c([N+](=O)[O-])c1				CC50 [1]: 48.1 µM (active)
c1ccc(-n2nnnc2Oc2ccc(-c3nnco3)cc2)cc1			> 195 µM (not active)	
Cc1ccc(S(=O)(=O)Nc2ccccc2N(C)S(=O)(=O)c2ccc(C)cc2)cc1				AC50 [5]: 10.2 µM (active)
Cc1nc2c(-c3ccccc3)c(C)nn2c(O)c1Cc1ccccc1	9.56 µM (active)	18.5 µM (active)		EC50 [3]: > 50 µM (not active)
CC(Sc1nc2cc([N+](=O)[O-])ccc2n1-c1cccc(C(F)(F)F)c1)C(=O)NC(N)=O (configuration not stated)	> 150 µM (not active)	> 150 µM (not active)		EC50 [3]: > 150 µM (not active)
Cc1cccc(NC(=O)c2ccc(S(=O)(=O)N(C)CC3CCCO3)cc2)c1C (configuration not stated)	> 150 µM (not active)	> 150 µM (not active)		EC50 [3]: > 150 µM (not active)
Oc1ccccc1CNc1ccc(OC(F)(F)F)cc1			> 195 µM (not active)	
Cc1ccc(-c2cn(-c3ccccc3)c(S)n2)cc1C			> 195 µM (not active)	
O=C(COc1ccc(Cl)cc1)NCc1nnc2c3ccccc3c(-c3ccccc3)nn12				CC50 [1]: 17.9 µM (active)
Cc1nc(C(=O)NNC(=O)c2c(-c3c(Cl)cccc3Cl)noc2C)cs1				AC50 [5]: 6.91 µM (active)
CCc1ccc(Nc2n[n+](-c3ccccc3)c(-c3ccc(OC)c(Br)c3)s2)cc1				CC50 [1]: 31.3 µM (active)
Cc1c(C(=O)OCC(=O)N2CC(C)OC(C)C2)oc2ccc(Br)cc12 (configuration not stated)			> 195 µM (not active)	
CC12CC(c3ccccc3O1)C(C(=O)NCc1ccccc1)C(=O)N2 (configuration not stated)			> 195 µM (not active)	
CC1(C)Cc2nc3sc4c(OCc5ccccc5)ncnc4c3cc2CO1	4.04 µM (active)	11 µM (active)		EC50 [3]: > 150 µM (not active)
COc1ccccc1N1CC(C)C(=O)NC1=S (configuration not stated)			> 195 µM (not active)	
Cc1nn(C(C)C(=O)NC2C(=O)N3C(C(=O)O)=C(CSc4nnnn4C)CSC23)cc1Cl (configuration not stated)	0.112 µM (active)	0.337 µM (active)		
CN1C(=O)/C(=C/c2ccc(C(F)(F)F)cc2)Sc2ccc(C(=O)N3CCN(c4ccccn4)CC3)cc21	1.53 µM (active)	12.5 µM (active)		EC50 [3]: > 150 µM (not active)

Structure (SMILES)	EC50 [2]	EC50 [4]	EC50 [6]	also measured
COc1ccc(CN2C(=O)c3ccccc3C(/C=N\OCc3ccc(C)cc3)C2=O)cc1 (configuration not stated)	1.67 µM (active)	11.2 µM (active)		EC50 [3]: > 150 µM (not active)
O=C(NCCC1CCCCN1S(=O)(=O)c1ccc(F)cc1)C(=O)Nc1ccccc1F (configuration not stated)			> 195 µM (not active)	
CCOC(=O)c1cccc(N2C(N)=NC(N)=NC2(C)C)c1	0.127 µM (active)	0.63 µM (active)		
Fc1ccc2nc(Nc3nc4cc5c(cc4s3)OCO5)sc2c1	7.04 µM (active)	3.02 µM (active)		
Cc1nnc(SCC(=O)Nc2nccs2)nc1O				AC50 [7]: 10 µM (inconclusive); AC50 [8]: 31.6 µM (inconclusive); AC50 [9]: 10 µM (inconclusive)
COc1cc2c3c(c1)/C(=C1/SC(=S)NC1=O)C(=O)N3C(C)(C)C=C2C	2.63 µM (active)	8.28 µM (active)		EC50 [3]: 1.72 µM (active)
COc1ccc(C=O)cc1Cn1ccnc1C			> 195 µM (not active)	
CCOC(=O)Cn1c(CN2CCN(c3cccc(Cl)c3)CC2)nc2c1c(=O)[nH]c(=O)n2C			> 195 µM (not active)	
COCC(C)NC(=O)c1ccc2nc(-c3ccccc3)c(-c3ccccc3)nc2c1 (configuration not stated)			> 195 µM (not active)	
COC(=O)C1=C(C(=O)OC)[C@@H]2N(C)c3ccccc3[C@@]23C[C@@H](C(=O)OC)N(C(=O)CC(C)C)C3=N1			> 195 µM (not active)	
C=CCn1c(NCc2ccc(OC)cc2O)nc2ccccc21				CC50 [1]: 37.8 µM (active)
CCN(CC(=O)NCC1CCCO1)S(=O)(=O)c1ccc(Cl)cc1 (configuration not stated)	> 150 µM (not active)	> 150 µM (not active)		EC50 [3]: > 150 µM (not active)
COc1cc(Cc2cc(N)nc(N)n2)cc(OC)c1OC	3.11 µM (active)	> 150 µM (not active)		EC50 [3]: > 150 µM (not active)
CCOC(=O)c1ccc(/N=c2\sc(C(=O)OC)cc(=O)n2Cc2ccc3c(c2)OCO3)cc1				CC50 [1]: 20.8 µM (active)
Cc1ccccc1Nc1nc(N)nc(CN(C)Cc2ccccc2Cl)n1	> 150 µM (not active)	> 150 µM (not active)		EC50 [3]: > 150 µM (not active)
NCCCC[C@@H](C(=O)N1CCNCC1)n1cc([C@@H](N)CO)nn1			> 195 µM (not active)	
O=C(Cn1cnc2c(oc3ccccc32)c1=O)NCc1ccco1				AC50 [7]: 20 µM (inconclusive); AC50 [8]: 14.1 µM (inconclusive); AC50 [9]: 8.91 µM (inconclusive)
CCn1c(SCC(=O)Nc2oc(C)c3c(C)nnc(O)c23)nc2sc(C)c(C)c2c1=O			> 195 µM (not active)	
FC(F)(F)c1ccccc1/C=N/n1c(S)nnc1C1CCCCC1	8.41 µM (active)	15.7 µM (active)		EC50 [3]: 32.4 µM (inconclusive)
CCOC(=O)N1CCN(C(=O)c2ccc3c(=O)n(CCC4=CCCCC4)c(=S)[nH]c3c2)CC1		> 150 µM (not active)		EC50 [3]: 29.8 µM (active)
c1ccc2c(c1)CC1(CCCCC1)n1nnnc1-2			> 195 µM (not active)	
Cn1c(=O)c2c3c(sc2n2c(SCc4ccccc4)nnc12)CCCC3				CC50 [1]: > 50 µM (active)
Cc1cc(C)cc(NC(=O)N2CCN(Cc3ccc4c(c3)OCO4)CC2)c1			> 195 µM (not active)	
CC1(O)CC(=O)N(c2ccccc2)O1 (configuration not stated)				AC50 [7]: 17.8 µM (inconclusive); AC50 [8]: 22.4 µM (inconclusive); AC50 [9]: 10 µM (inconclusive)
COc1ccccc1Nc1ncnc2c1c(C)c(C)n2CCO				CC50 [1]: > 50 µM (active)
